Experimental findings from USRE36832E, “N-heteroaryl-N'-phenylurea derivatives, their production and use” (Nihon Nohyaku Co., LTD, priority 1993, dated 2000) are described below.

The experiment concerns the target T1, acyl-CoA:cholesterol O-acyltransferase (ACAT) (Oryctolagus cuniculus, UniProt G1SFD9).
T1 construct: The intestinal mucosa of a white rabbit was homogenized and microsomal fraction was obtained by stepwise centrifugation; from tissue; host or cells: intestinal mucosa of white rabbit, microsomal fraction
T1 sequence (G1SFD9 1-524): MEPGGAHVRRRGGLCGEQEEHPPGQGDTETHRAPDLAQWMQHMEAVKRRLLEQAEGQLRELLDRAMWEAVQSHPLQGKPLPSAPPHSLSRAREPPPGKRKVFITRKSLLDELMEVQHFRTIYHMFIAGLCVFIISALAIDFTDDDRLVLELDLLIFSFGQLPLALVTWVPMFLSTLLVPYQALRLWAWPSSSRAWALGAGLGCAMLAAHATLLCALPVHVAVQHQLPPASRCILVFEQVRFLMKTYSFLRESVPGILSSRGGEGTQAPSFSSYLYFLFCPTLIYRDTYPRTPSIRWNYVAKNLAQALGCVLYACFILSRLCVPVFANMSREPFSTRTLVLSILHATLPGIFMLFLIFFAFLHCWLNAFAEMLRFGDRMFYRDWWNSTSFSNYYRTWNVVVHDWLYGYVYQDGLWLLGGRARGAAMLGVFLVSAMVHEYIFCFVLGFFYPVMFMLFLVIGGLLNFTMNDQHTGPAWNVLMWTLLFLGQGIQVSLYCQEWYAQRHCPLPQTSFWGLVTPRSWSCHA
As to the kind of experiment: Inhibitory activity on acyl-CoA:cholesterol O-acyltransferase (ACAT), intestinal mucosa microsomal fraction, [1-14C]oleyl-CoA incorporation into cholesterol esters. Conditions: read-out: Inhibition rate %. Format: biochemical, white rabbit. The protocol:
Inhibitory activity on acyl-CoA:cholesterol Oacyltransferase (ACAT)
The enzyme used in the test was prepared according to the method of Heider et al. [J. Lipid, Res. 24, 1127 (1983)]. The intestinal mucosa of a white rabbit was homogenized and microsomal fraction was obtained by stepwise centrifugation. The microsomal fraction was suspended in 0,154M phosphate buffer (pH 0 7.4) and stored at -80° C. until use.
ACAT activity was determined by a modification of the method of Helgerud et al. [J. Lipid Res. 22, 271 (1981)] by measuring radioactivity incorporated into cholesterol esters from [1-14C]oleyl-CoA, as an indication. As to the ACAT-inhibiting activity of each compound to be tested, the inhibition rate was calculated by the following equation.

The structures appear in SMILES notation.

`CCc1cccc(CC)c1NC(=O)Nc1oc2ccc(F)cc2c1-c1ccccc1Cl` [Compound 1]: the inhibition at 0.01 µM is 49.8%.
With `CC(C)c1cccc(C(C)C)c1NC(=O)Nc1oc2ccc(F)cc2c1-c1ccccc1Cl` [Compound 2, N-[3-(2-Chlorophenyl)-5-fluorobenzofuran-2-yl]-N'-(2,6-diisopropylphenyl)urea], the inhibition at 0.01 µM is 58.3%.
Turning to `O=C(Nc1ccccc1)Nc1oc2ccc(Cl)cc2c1-c1ccccc1Cl` [Compound 4, N-[5-Chloro-3-(2-chlorophenyl)benzofuran-2-yl]-N'-phenylurea], the inhibition at 1 µM worked out at 77.9%.
With `Cc1ccccc1NC(=O)Nc1oc2ccc(Cl)cc2c1-c1ccccc1Cl` [Compound 5, N-[5-Chloro-3-(2-chlorophenyl)benzofuran-2-yl]-N'-(2-methylphenyl)urea], the inhibition at 0.01 µM was determined as 15.4% and the inhibition at 1 µM worked out at 98.5%.
For `O=C(Nc1ccccc1C(F)(F)F)Nc1oc2ccc(Cl)cc2c1-c1ccccc1Cl` [Compound 7, N-[5-Chloro-3-(2-chlorophenyl)benzofuran-2-yl]-N'-(2-trifluoromethylphenyl)urea] the same measures were 37.2% and 99.1%.
Regarding `COc1ccccc1NC(=O)Nc1oc2ccc(Cl)cc2c1-c1ccccc1Cl` [Compound 8, N-[5-Chloro-3-(2-chlorophenyl)benzofuran-2-yl]-N'-(2-methoxyphenyl)urea], the inhibition at 0.01 µM came out at 24.9% and the inhibition at 1 µM stood at 97.4%.
For `CC(C)c1cccc(C(C)C)c1NC(=O)Nc1oc2ccc(Cl)cc2c1-c1ccccc1Cl` [Compound 13, N-[5-Chloro-3-(2-chlorophenyl)benzofuran-2-yl]-N'-(2,6-diisopropylphenyl)urea] the same measures were 84.9% and 99.4%.
For `Cc1cccc(C(C)C)c1NC(=O)Nc1oc2ccc(Cl)cc2c1-c1ccccc1Cl` [Compound 15, N-[5-Chloro-3-(2-chlorophenyl)benzofuran-2-yl]-N'-(2-isopropyl-6-methylphenyl)urea] the same measures were 76.8% and 99.4%.
As for `Cc1cccc(N(C)C)c1NC(=O)Nc1oc2ccc(Cl)cc2c1-c1ccccc1Cl` [Compound 19, N-[5-chloro-3-(2-chlorophenyl)benzofuran-2-yl]-N'-(2-dimethylamino-6-methylphenyl)urea], the inhibition at 0.01 µM was 71.3%.
`Cc1ccc2oc(NC(=O)Nc3c(C(C)C)cccc3C(C)C)c(-c3ccccc3Cl)c2c1` [Compound 22, N-[3-(2-Chlorophenyl)-5-methylbenzofuran-2-yl]-N'-(2,6-diisopropylphenyl)urea]: the inhibition at 0.01 µM was determined as 69.3%.
As to `CCc1ccc2oc(NC(=O)Nc3c(C(C)C)cccc3C(C)C)c(-c3ccccc3Cl)c2c1` [Compound 25, N-[3-(2-Chlorophenyl)-5-ethylbenzofuran-2-yl]-N'-(2,6-diisopropylphenyl)urea], the inhibition at 0.01 µM was found to be 73.3%.
The same measure, in the same setting: for `CCc1ccc2oc(NC(=O)Nc3ccc(F)cc3F)c(-c3ccccc3Cl)c2c1` [Compound 26, N-[-3-(2-Chlorophenyl)-5-ethylbenzofuran-2-yl]-N'-(2,4-difluorophenyl)urea] the value was 41.2%; for `CCCCCCc1ccc2oc(NC(=O)Nc3c(C(C)C)cccc3C(C)C)c(-c3ccccc3Cl)c2c1` [Compound 27, N-[3-(2-Chlorophenyl)-5-n-hexylbenzofuran-2-yl]-N'-(2,6-diisopropylphenyl)urea], 63.5%.
For the compound `COc1ccc2oc(NC(=O)Nc3c(C(C)C)cccc3C(C)C)c(-c3ccccc3Cl)c2c1` [Compound 30, N-[3-(2-Chlorophenyl)-5-methoxybenzofuran-2-yl]-N'-(2,6-diisopropylphenyl)urea], the inhibition at 0.01 µM was 58.4%.
Consider `Cc1cc2oc(NC(=O)Nc3c(C)cccc3C)c(-c3ccccc3Cl)c2cc1C` [Compound 36, N-[3-(2-Chlorophenyl)-5,6-dimethylbenzofuran-2-yl]-N'-(2,6-dimethylphenyl)urea], for which the inhibition at 0.01 µM was determined as 37.6% and the inhibition at 1 µM was found to be 98.9%.
For `Cc1cc2oc(NC(=O)Nc3c(C(C)C)cccc3C(C)C)c(-c3ccccc3Cl)c2cc1C` [Compound 38, N-[3-(2-Chlorophenyl)-5,6-dimethylbenzofuran-2-yl]-N'-(2,6-diisopropylphenyl)urea] the same measures were 77.2% and 99.5%.
As to `Cc1cc2oc(NC(=O)Nc3c(C)cccc3C(C)C)c(-c3ccccc3Cl)c2cc1C` [Compound 39], the inhibition at 0.01 µM is 70.9% and the inhibition at 1 µM is 99.4%.
On the same counts, the results for `Cc1cc(C)c2oc(NC(=O)Nc3c(C(C)C)cccc3C(C)C)c(-c3ccccc3Cl)c2c1` [Compound 43, N-[3-(2-Chlorophenyl)-5,7-dimethylbenzofuran-2-yl]-N'-(2,6-diisopropylphenyl)urea] are 52.1% and 99.5%.
Turning to `Cc1cc(C)c(NC(=O)Nc2oc3c(C)cc(C)cc3c2-c2ccccc2Cl)c(C)c1` [Compound 45, N-[3-(2-Chlorophenyl)-5,7-dimethylbenzofuran-2-yl]-N'-(2,4,6-trimethylphenyl)urea], the inhibition at 1 µM was determined as 94%.
Turning to `Cc1cc(C)c2oc(NC(=O)Nc3ccc(F)cc3F)c(-c3ccccc3Cl)c2c1` [Compound 46, N-[3-(2-Chlorophenyl)-5,7-dimethylbenzofuran-2-yl]-N'-(2,4-difluorophenyl)urea], the inhibition at 1 µM worked out at 92.7%.
Same read-out and setting: for `Cc1cc(C)c2oc(NC(=O)Nc3c(F)cccc3F)c(-c3ccccc3Cl)c2c1` [Compound 47, N-[3-(2-Chlorophenyl)-5,7-dimethylbenzofuran-2-yl]-N'-(2,6-difluorophenyl)urea] the value was 93%.
As to `Cc1cc(C)c2oc(NC(=O)Nc3c(F)cc(F)cc3F)c(-c3ccccc3Cl)c2c1` [Compound 48, N-[3-(2-Chlorophenyl)-5,7-dimethylbenzofuran-2-yl]-N'-(2,4,6-trifluorophenyl)urea], the inhibition at 0.01 µM stood at 6.8% and the inhibition at 1 µM turned out to be 95.6%.
With `Cc1cc(C)c2oc(NC(=O)Nc3c(Cl)cccc3Cl)c(-c3ccccc3Cl)c2c1` [Compound 49, N-[3-(2-Chlorophenyl)-5,7-dimethylbenzofuran-2-yl]-N'-(2,6-dichlorophenyl)urea], the inhibition at 0.01 µM came out at 51.9% and the inhibition at 1 µM amounted to 99.1%.
`CC(C)c1cccc(C(C)C)c1NC(=O)Nc1oc2cc3c(cc2c1-c1ccccc1Cl)CCC3` [Compound 53, N-[3-(2-Chlorophenyl)-6,7-dihydro-5H-cyclopenta[f]benzofuran-2-yl]-N'-(2,6-diisopropylphenyl)urea]: the inhibition at 0.01 µM is 43.7%.
As to `O=C(Nc1ccc(F)cc1F)Nc1oc2cc3c(cc2c1-c1ccccc1Cl)CCC3` [Compound 55, N-[3-(2-Chlorophenyl)-6,7-dihydro-5H-cyclopenta[f]benzofuran-2-yl]-N'-(2,4-difluorophenyl)urea], the inhibition at 0.01 µM is 32.1%.
The same measure, in the same setting: for `CC(C)c1cccc(C(C)C)c1NC(=O)Nc1oc2ccc(Cl)cc2c1-c1ccccc1F` [Compound 58, N-[5-Chloro-3-(2-fluorophenyl)benzofuran-2-yl]-N'-(2,6-diisopropylphenyl)urea] the value was 69.2%; for `CCc1cccc(CC)c1NC(=O)Nc1oc2ccc(Cl)cc2c1-c1ccccc1C` [Compound 60, N-[5-Chloro-3-(2-methylphenyl)benzofuran-2-yl]-N'-(2,6-diethylphenyl)urea], 82.6%; for `Cc1ccccc1-c1c(NC(=O)Nc2c(C(C)C)cccc2C(C)C)oc2ccc(Cl)cc12` [Compound 61, N-[5-Chloro-3-(2-methylphenyl)benzofuran-2-yl]-N'-(2,6-diisopropylphenyl)urea], 65.6%.
Still for that read-out and setting: for `CCc1cccc(CC)c1NC(=O)Nc1oc2ccc(Cl)cc2c1-c1ccccc1SC` [Compound 62, N-[5-Chloro-3-(2-methylthiophenyl)benzofuran-2-yl]-N'-(2,6-diethylphenyl)urea] the value was 91.6%.
Consider `CSc1ccccc1-c1c(NC(=O)Nc2c(C(C)C)cccc2C(C)C)oc2ccc(Cl)cc12` [Compound 63, N-[5-Chloro-3-(2-methylthiophenyl)benzofuran-2-yl]-N'-(2,6-diisopropylphenyl)urea], for which the inhibition at 0.01 µM turned out to be 72.1%.
As for `CCc1cccc(CC)c1NC(=O)Nc1sc2ccc(Cl)cc2c1-c1ccccc1Cl` [Compound 65, N-[5-Chloro-3-(2-chlorophenyl)-1-benzothiophen-2-yl]-N'-(2,6-diethylphenyl)urea], the inhibition at 0.01 µM came to 56.5% and the inhibition at 1 µM amounted to 99.1%.
Turning to `CCc1cccc(CC)c1NC(=O)Nc1sc2ccc(C)cc2c1-c1ccccc1Cl` [Compound 72, N-[3-(2-Chlorophenyl)-5-methyl-1-benzothiophen-2-yl]-N'-(2,6-diethylphenyl)urea], the inhibition at 0.01 µM was determined as 60.6%.
